The source of these data is patent USRE39576E1, “Enzyme inhibitors” (Smithkline Beecham Corporation, priority 1994, dated 2007).

For series [1], the target named is T1, human iNOS (Homo sapiens, UniProt P35228). Nature of the series: Inhibition of recombinant human iNOS (baculovirus/insect cell cytosol, spectrophotometric microtitre plate assay). To be noted: 37° C., L-arginine 30 μM, steady-state 15-30 min; mean ±SEM (n). The arrangement: made in house; host or cells: baculovirus/insect cell system; insect cytosol assayed unpurified. It counts as biochemical. As to the method:
Inhibition of recombinant human iNOS was determined following expression in a baculovirus/insect cell system (Charles et al (1994) In: The Biology of Nitric Oxide 4, Moncada S., Feelisch M., Busse R. and Higgs E. A., eds., Portland Press, London, pp 316-320), assaying the insect cytosol for NO synthase in a microtitre plate assay based on the spectrophotometric assay described previously (Knowles et al (1990) Biochem. Biophys. Res. Commun. 172, 1042-1048). The assay was conducted at 37° C. in reaction mixtures containing HEPES (100 mM), DTT (0.1 mM), tetrahydrobiopterin (5 μM), NADPH (100 μM), haemoglobin (5 μM), L-arginine (30 μM) and inhibitor (0-300 μM), measuring the absorbance change at 405-420 nm, and determining the steady-state inhibition between 15 and 30 minutes incubation.

The target in series [2] is T1, human iNOS. The series can be described thus: Inhibition of purified human iNOS ([14C]-L-arginine to citrulline conversion). To be noted: for Selectivity for iNOS vs. cNOS: purified human enzymes, ratio of Kd; for Selectivity for iNOS vs. cNOS [relative to LNMMA]: value in square brackets. Also on record: made in house. It counts as biochemical. On the procedure: (§1) The inhibition of purified human NO synthases was determined following preparation of human nNOS (Furfine et al. (1993) Biochem. 32, 8512-8517), iNOS (Sherman et al. (1993) Biochem. 32, 11600-11605) and eNOS (Garvey et al. (1994) Arch. Bioch. Biophys., in press) as described. Their activity was monitored by the conversion of [^14C]-L-arginine to citrulline as described by Schmidt et al. ((1991) Proc. Natl. Acad. Sci. USA 88, 365-369) in reaction mixtures (100 μl) containing 50 mM HEPES pH 7.0, 8 μM tetrahydrobiopterin, 1 mM NADPH and 0.5 μM [^14C]-L-arginine (30,000 cpm) at 30° C.

Another series has as its target T2, eNOS in rat aortic rings (Rattus norvegicus, UniProt Q62600).
T2 construct: from tissue; host or cells: rat thoracic aorta rings with intact endothelium
The series can be described thus: Inhibition of eNOS in situ in rat aortic rings (basal tone, intact endothelium). To be noted: rings with intact endothelium; for inhibition at 300 µM: read-out: inhibition at 300 μM, cNOS in rat sortic rings; for IC50: basal tone, mean ±SEM (n), read-out: IC50 cNOS in rat sortic rings. Format: cell-based. On the procedure: (§2) The inhibition of eNOS and iNOS in situ in rat aortic rings was assessed by measuring the increases in ring tension caused by NO synthase inhibition. For studies of basal tone (reflecting eNOS), rings of thoracic aorta with intact endothelium were prepared as described previously (Rees et al. (1989) Br. J. Pharmacol. 96, 418-424) and cumulative concentration curves obtained for the inhibitors in the presence of a threshold concentration of phenylephrine (ED10≈10 nM). For studies of induced smooth muscle tone (reflecting iNOS), endothelium-denuded rings were exposed to LPS (0.1 μg/ml from S. typhosa) in the presence of phenylephrine at approximately ED90 for 6 h as described previously (Rees et al. (1990) Biochem. Biophys. Res. Commun. 173, 541-547). During this time a progressive loss of tone occurred because of iNOS induction. Cumulative concentration curves were then obtained for the inhibitors.

In a further series the target is T3, iNOS in rat aortic rings (Rattus norvegicus, UniProt Q06518).
T3 construct: During this time a progressive loss of tone occurred because of iNOS induction; from tissue; host or cells: rat thoracic aorta rings, endothelium-denuded, exposed to LPS
Nature of the series: Inhibition of iNOS in situ in rat aortic rings (LPS-induced loss of tone, endothelium-denuded rings). To be noted: for IC50: endothelium-denuded rings, LPS 6 h, mean ±SEM (n), read-out: IC50 iNOS in rate sortic rings; for Selectivity for iNOS: rat aortic rings, iNOS vs eNOS. Format: cell-based. As to the method:
as §2

Another series concerns the target T4, human eNOS (Homo sapiens, UniProt P29474).
T4 construct: made in house
Nature of the series: Inhibition of purified human eNOS ([14C]-L-arginine to citrulline conversion). Format: biochemical. To be noted: purified human enzyme, 30° C., 0.5 μM [14C]-L-arginine; read-out: Purified Human Enzyme Kd tNOS. On the procedure: as §1

Another series has as its target T5, human nNOS (Homo sapiens, UniProt P29475).
T5 construct: made in house
The series can be described thus: Inhibition of purified human nNOS ([14C]-L-arginine to citrulline conversion). It counts as biochemical. To be noted: 30° C., 0.5 μM [14C]-L-arginine, read-out: Purified Human Enzyme Kd nNOS. As to the method: as §1

Series [3] concerns the target T6, iNOS (Mus musculus, UniProt P29477).
T6 construct: from tissue; host or cells: whole animal: female CD-1 mice, 7 h after LPS
The series can be described thus: Blood pressure in endotoxin shocked conscious mice (iNOS in vivo). Particulars: conscious female CD-1 mice, 7 h after LPS 12.5 mg/kg i.v. On the procedure: (§3) The inhibition of eNOS and iNOS in vivo was assessed by the effects of inhibitors on blood pressure in either normal (eNOS) or endotoxin shocked (iNOS) conscious mice. Female CD-1 mice (25-35 g) were anaesthetised briefly with isofluorane (2%). Cannula lines were implanted in the femoral vein, tunnelled subcutaneously to exit at the top of the back and connected to a swivel tether system for continuous monitoring of blood pressure and for inhibitor administration respectively. Following recovery from surgery, animals with mean blood pressures in the normal range (90-110 mm Hg) were used to obtain cumulative concentration curves for inhibitors on blood pressure either without further treatment (“normal mice”) or 7 h after administration of lipopolysaccharide (12.5 mg/kg of LPS from E. coli 026:B6 intravenously over 30 s) to induce shock (“shocked mice”).

Series [4] concerns iNOS. The series can be described thus: Endotoxin induced vascular (plasma) leakage in rats. It counts as in vivo. On the procedure:
The effects of Example 7 on endotoxin induced vascular leakage were assessed in rats as described by Laszlo et al ((1994) Brit. J. Pharmacol. 111 1309-1315). […] However, Example 7 did abolish the iNOS-dependent delayed plasma leakage, with an ED50 of 1 mg/kg.

In a further series the target is T7, eNOS (Mus musculus, UniProt P70313).
T7 construct: from tissue; host or cells: whole animal: female CD-1 mice, untreated
Nature of the series: Blood pressure in normal conscious mice (eNOS in vivo). To be noted: conscious female CD-1 mice, dose range 1-1000 mg/kg, intravenous. On the procedure: as §3

Where [5] appears, read: purified human iNOS, 30° C., 0.5 μM [14C]-L-arginine, read-out: Purified Human Enzyme Kd iNOS.

Structures can show the parent of a compound that is named as a salt. Where two headings read alike, the source gives them in different places. Some results are limits rather than exact numbers.

As to `CSCC(=N)NCCS(=O)(=O)CC(N)C(=O)O` (stereo not drawn) [Example 5, 2-Amino-6-(2-methylthio-1-imioethylamino)-4,4-dioxo-4-thiohexanoic acid], at human iNOS [1], the IC50 (as a rule, the point on the concentration scale where inhibition reaches its midpoint) came to 95 ± 3 µM.

Consider `N=C(CO)NCCS(=O)(=O)CC(N)C(=O)O` (stereo not drawn) [Example 6, 2-Amino-6-(2-hydroxy-1-iminoethylamino)-4,4-dioxo-4-thiahexanoic acid 1.67 hydrochloride 0.33 hydrobromide], for which, on human iNOS [1], the IC50 is more than 300 µM.

With `Br.Br.N=C(CF)NCCS(=O)(=O)CC(N)C(=O)O` (stereo not drawn) [Example 1, 2-Amino-6-(1-imino-2-fluoroethylamino)-4,4-dioxo-4-thiahexanoic acid dihydrobromide], the IC50 on human iNOS [1] is 5.5 ± 0.55 µM; at eNOS in rat aortic rings, more than 300 µM; on iNOS in rat aortic rings, 1.7 ± 0.7 µM. For the same compound, the “Selectivity for iNOS vs. cNOS” value at human iNOS [2] amounted to 12. In addition, the figures for the Kd on human iNOS [2] (setting [5]), on human eNOS and at human nNOS were 1.9 µM, 23 µM and 26 µM, respectively. Besides, the “Selectivity for iNOS vs. cNOS [relative to LNMMA]” value (shortened to “Selectivity … [relative to LNMMA]”) at human iNOS [2] came out at 33. Besides, on eNOS in rat aortic rings, the inhibition (usually how much of the control response was suppressed) at 300 µM was 8%. Also, the “Selectivity for iNOS” value on iNOS in rat aortic rings is >>200-fold.

Take `CC(=N)NCCS(=O)(=O)CC(N)C(=O)O` (stereo not drawn) [Example 7, 2-Amino-6-(1-iminoethylamino)-4,4-dioxo-4-thiahexanoic acid]: the results for the IC50 on human iNOS [1], at eNOS in rat aortic rings and at iNOS in rat aortic rings were 14 ± 0.6 µM, 101 ± 21 µM and 1.5 ± 0.3 µM, respectively. For the same compound, the equilibrium dissociation constant (Kd) (as a rule, a measure of binding affinity in units of concentration) turned out to be 0.1 µM at human iNOS [2] (footnote: inhibition strongly time dependant on iNOS, read-out: Kd on iNOS, time dependent inhibition); 2.9 µM at human iNOS [2] (setting [5]); 29 µM at human eNOS; 18 µM at human nNOS. Moreover, the “Selectivity for iNOS vs. cNOS” value at human iNOS [2] is on record as 27. The “Selectivity … [relative to LNMMA]” value at human iNOS [2] was 73. Moreover, the “effect on blood pressure in shocked mice” value at iNOS [3] is “restore fully the blood pressure to the normal range”. In the series with iNOS [4] (doses up to 5 mg/kg, administered concurrently with endotoxin), the “aggravation of the endotoxin-induced plasma leakage” value is “did not cause aggravation”. Besides, the “ED50, abolition of iNOS-dependent delayed plasma leakage” value with iNOS [4] (endotoxin induced) is recorded as 1 mg/kg. Besides, the “Selectivity for iNOS” value at iNOS in rat aortic rings was 67-fold. Moreover, the “effect on blood pressure in normal mice” value on eNOS is “no effect on blood pressure”.

On to `COCC(=N)NCCS(=O)(=O)CC(N)C(=O)O` (stereo not drawn) [Example 2, 2-Amino-6-(1-imino-2-methoxyethylamino)-4,4-dioxo-4-thiohexanoic acid dihydrobromide dihydrate], for which the IC50 on human iNOS [1] is 30 ± 3 µM. In addition, on eNOS in rat aortic rings, the inhibition at 300 µM was 26% and the IC50 was more than 300 µM. Besides, at iNOS in rat aortic rings, the IC50 turned out to be 33 ± 13 µM and the “Selectivity for iNOS” value is reported as >10-fold.

As for `CC(=N)NCC[S+]([O-])CC(N)C(=O)O` (stereo not drawn) [Example 8, 2-Amino-6-(1-iminoethylamino)-4-oxo-4-thiahexanoic acid], at human iNOS [2], the “Selectivity for iNOS vs. cNOS” value is listed as 11 and the “Selectivity … [relative to LNMMA]” value is 30. Further, the dissociation constant Kd on human iNOS [2] (setting [5]) amounted to 9.1 µM. On eNOS in rat aortic rings, the inhibition at 300 µM came out at 42% and the concentration for half-maximal inhibition (IC50) was more than 300 µM. In addition, at iNOS in rat aortic rings, the IC50 was determined as 2.7 ± 0.2 µM and the “Selectivity for iNOS” value is more than 100 fold. For the same compound, the Kd at human eNOS was determined as 100 µM. Further, the equilibrium dissociation constant (Kd) on human nNOS was determined as 68 µM.

Turning to `CC(=O)OCC(=N)NCCS(=O)(=O)CC(N)C(=O)O` (stereo not drawn) [Example 3, dihydrobromide], the half-inhibitory concentration (IC50) on human iNOS [1] is more than 300 µM.

`N=C(COCc1ccccc1)NCCS(=O)(=O)CC(N)C(=O)O` (stereo not drawn) [Example 4, hydrobromide]: on human iNOS [1], the half-inhibitory concentration (IC50) was more than 300 µM.
